Several values for one entry are separate records, joined by “and”; a condition that tells them apart may be missing. Identical values can stand only once. Like-named read-outs stand apart in the source and are kept apart here.
Legend:
[1] = test system: P. falciparum lab lines FC27 and K1; test: microbe, parasite or virus in culture; assay type: cell-based; details: Plasmodium falciparum, median of 3 independent experiments
[2] = test system: P. falciparum strains (sensitive and resistant); test: microbe, parasite or virus in culture; assay type: cell-based; details: Plasmodium falciparum, mean ± SD n=3
[3] = test system: P. falciparum strain 3D7A; design: method as in PMID 22383983; details: cited from earlier work
[4] = test system: P. falciparum clinical field isolates; test: microbe, parasite or virus in culture; assay type: cell-based; details: Plasmodium falciparum, read-out: Median IC50
[5] = test system: P. vivax clinical field isolates; test: microbe, parasite or virus in culture; assay type: cell-based; details: Plasmodium vivax, read-out: Median IC50
[6] = test system: P. falciparum strain 3D7^0087/N9; design: method as in PMID 19596869; details: four consecutive daily doses; cited from earlier work
[7] = test system: P. berghei; design: species or system Plasmodium berghei
[8] = test system: P. falciparum 3D7; test: In vitro antimalarial activity, drug sensitivity testing (3D7); assay type: cell-based; details: Plasmodium falciparum
[9] = In vitro intrinsic clearance, rat liver microsomes (Chem Partners); assay type: in vitro ADME; details: rat (R) liver microsomes
[10] = In vitro intrinsic clearance, human liver microsomes (Chem Partners); assay type: in vitro ADME; details: human (H) liver microsomes
[11] = Rat PK iv 1 mg/kg (Chem Partners); details: in vivo
[12] = Rat blood stability in vitro; details: male, Sprague Dawley, freshly collected whole blood
[13] = Mammalian cell cytotoxicity; assay type: cell-based; details: human; HeLa cells, n=3; read-out: cytotoxicity median IC50
[14] = test system: P. berghei; design: method as in Charman et al. 12; details: ref Charman et al. 12, cited from earlier work
[15] = test system: African variant G6PD deficient human red blood cells (huRBC); details: 7 days post-treatment; E209 up to 50 mg kg^−1 day^−1 for 3 days; PQ 25 mg/kg/day for 3 days
[16] = DD2, strain Dd2 (chloroquine resistant)
[17] = HB3, strain HB3 (chloroquine sensitive)
[18] = NF54, strain NF54 (chloroquine sensitive)
[19] = strain 7G8 (chloroquine resistant)
[20] = strain D6 (chloroquine sensitive)
[21] = strain FCB (chloroquine resistant)
[22] = strain K1 (chloroquine resistant)
[23] = strain V1/S (chloroquine resistant)

For CCN(CC)CCCC(C)Nc1ccnc2cc(Cl)ccc12 (stereo not shown) [Chloroquine, chloroquine], the IC50 ([1]; K1, K1 (CQ R) lab line) was 0.212 µM, the IC50 [2, 16] was 0.15 ± 0.0257 µM and the IC50 [2, 17] was 0.009 ± 0.0015 µM. The IC50 [2, 18] was 0.0059 ± 0.001 µM, the IC50 ([2]; TM90C2B, strain TM90C2B (chloroquine resistant)) was 0.121 ± 0.0206 µM and the IC50 [2, 19] was 0.055 ± 0.0094 µM. It also gave an IC50 [2, 20] of 0.0086 ± 0.0015 µM, an IC50 [2, 21] of 0.066 ± 0.0113 µM and an IC50 [2, 22] of 0.173 ± 0.0295 µM. For the same compound, the IC50 [2, 23] was 0.194 ± 0.033 µM, the Lag phase [3] was 0 h and the “PCT 99.9 %” value [3] was 34 h. The Slope [3] was −0.094, the IC50 [4] was 0.0855 µM and the IC50 [5] was 0.147 µM.

With C[C@H]1[C@H](OC(=O)CCC(=O)O)O[C@@H]2O[C@@]3(C)CC[C@H]4[C@H](C)CC[C@@H]1[C@@]24OO3 [Artesunate, artesunate] the IC50 ([1]; K1, FC27 (CQ S) lab line) was 0.0036 µM, the IC50 ([1]; K1, K1 (CQ R) lab line) was 0.0051 µM and the IC50 [2, 16] was 0.0054 ± 0.0011 µM. For the same compound, the IC50 [2, 17] was 0.0028 ± 0.0006 µM, the IC50 [2, 18] was 0.0047 ± 0.001 µM and the IC50 [2, 19] was 0.0018 ± 0.0004 µM. The IC50 [2, 20] was 0.0058 ± 0.0012 µM, the IC50 [2, 21] was 0.0058 ± 0.0012 µM and the IC50 [2, 22] was 0.0028 ± 0.0006 µM. The IC50 [2, 23] was 0.0027 ± 0.0006 µM, the ED90 [6] was 10 mg/kg and the IC50 [5] was 0.0008 µM.

OC(c1cc(C(F)(F)F)nc2c(C(F)(F)F)cccc12)C1CCCCN1 (stereo not shown) [Mefloquine, mefloquine] gave an IC50 ([1]; K1, FC27 (CQ S) lab line) of 0.0562 µM, an IC50 [4] of 0.0127 µM and an IC50 [5] of 0.018 µM.

With CS(=O)(=O)N1CCN(CCCOc2ccc(C3CCC4(CC3)OOC3(OO4)C4CC5CC(C4)CC3C5)cc2)CC1 (stereo not shown) [Compound 7] the “In vivo (Pb) MSD (days) at 1 x 30 mg/kg” value [7] was 14 (14, 14, 14) days, the IC50 [8] was 0.0037 ± 0.0001 µM and the CLint scaled [9] was 29 mL/min/kg. For the same compound, the CLint scaled [10] was 238 mL/min/kg, the clearance [11] was 3.5 mL/min/kg and the half-life [11] was 3.2 h. The half-life at 1 µM [12] was 15 h.

In the case of c1cc(C2CCC3(CC2)OOC2(OO3)C3CC4CC(C3)CC2C4)ccc1OCCCN1CCOCC1 (stereo not shown) [Compound 5], the “In vivo (Pb) MSD (days) at 1 x 30 mg/kg” value [7] is reported as 16 days, the IC50 [8] is reported as 0.0075 ± 0.0002 µM and the CLint scaled [9] is reported as 75 mL/min/kg. The CLint scaled [10] was 147 mL/min/kg, the clearance [11] was 6.5 mL/min/kg and the half-life [11] was 1.5 h. It also gave a half-life at 1 µM [12] of 15 h.

With C[C@H]1[C@@H](O)O[C@@H]2O[C@@]3(C)CC[C@H]4[C@H](C)CC[C@@H]1[C@@]24OO3 [DHA, dihydroartemisinin, reference compound] the IC50 [13] was 0.4 µM.

For c1cc([C@H]2CC[C@]3(CC2)OO[C@]2(O3)C3CC4CC(C3)CC2C4)ccc1OCCN1CCOCC1 [OZ439], the IC50 [8] is given as 0.0051 ± 0.00081 µM, the cures ([14]; animals cured of n=3, single oral dose 30 mg/kg) is given as 3 and the “In vivo (Pb) MSD (days) at 1 x 30 mg/kg” value ([14]; single oral dose 30 mg kg^-1, P. berghei infected mice) is given as 30 days.

In the case of CCN(CC)Cc1cc(Nc2ccnc3cc(Cl)ccc23)ccc1O [Amodiaquine, amodiaquine], the IC50 ([1]; K1, FC27 (CQ S) lab line) is reported as 0.0331 µM, the IC50 ([1]; K1, K1 (CQ R) lab line) is reported as 0.0393 µM and the IC50 [4] is reported as 0.0256 µM. It also gave an IC50 [5] of 0.0506 µM.

In the case of Clc1ccc2c(N3CCN(CCCN4CCN(c5ccnc6cc(Cl)ccc56)CC4)CC3)ccnc2c1 [Piperaquine, piperaquine], the IC50 ([1]; K1, FC27 (CQ S) lab line) is reported as 0.0546 µM, the IC50 ([1]; K1, K1 (CQ R) lab line) is reported as 0.0755 µM and the IC50 [4] is reported as 0.0356 µM. For the same compound, the IC50 [5] was 0.0338 µM.

In the case of CS(=O)(=O)N1CCN(CCOc2ccc(C3CCC4(CC3)OOC3(OO4)C4CC5CC(C4)CC3C5)cc2)CC1 (stereo not shown) [Compound 6], the “In vivo (Pb) MSD (days) at 1 x 30 mg/kg” value [7] is reported as 19 days and 19.3 (14, 30,14) days, the IC50 [8] is reported as 0.0035 ± 0.0002 µM and the CLint scaled [9] is reported as 38 mL/min/kg. The CLint scaled [10] was 257 mL/min/kg, the clearance [11] was 3.5 mL/min/kg and the half-life [11] was 3.2 h. The half-life at 1 µM [12] was 12 h.

In the case of COc1cc(NC(C)CCCN)c2ncccc2c1 (stereo not shown) [primaquine, reference compound], the “loss of huRBC” value [15] is reported as “induced significant loss of huRBC”.

Reference: PMC5458052 (Nature Communications, 2017)
